Activity calls are given as the source filed them. How the calls were made is not given here.
Target: Sphingosine 1-phosphate receptor 1 (Homo sapiens) (UniProt P21453)
Experiment: S1P1 receptor antagonism, potency – cell-based, luminescence, late-stage, counter-screen for S1PR3 antagonist project, dose response (AID 743422)
Details: Tango EDG-1-bla U2OS cells, beta-lactamase FRET reporter, 5 h S1P

Sphingosine 1-phosphate receptor 1 (Homo sapiens), sequence (P21453 whole entry, looked up): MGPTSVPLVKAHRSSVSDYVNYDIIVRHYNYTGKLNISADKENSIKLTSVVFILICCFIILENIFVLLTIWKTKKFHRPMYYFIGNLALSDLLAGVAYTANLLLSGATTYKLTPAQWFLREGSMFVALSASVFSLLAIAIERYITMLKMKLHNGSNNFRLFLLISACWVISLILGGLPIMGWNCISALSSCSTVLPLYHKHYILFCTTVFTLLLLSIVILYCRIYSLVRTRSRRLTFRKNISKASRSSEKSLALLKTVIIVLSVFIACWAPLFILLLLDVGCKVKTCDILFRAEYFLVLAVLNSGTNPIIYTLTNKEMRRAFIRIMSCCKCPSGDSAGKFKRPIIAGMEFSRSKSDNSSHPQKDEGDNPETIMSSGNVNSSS

With O=C(NC(c1ccc(Cl)cc1)c1nc(-c2ccccc2)no1)c1ccc(Cl)c(Cl)c1 (centres undefined) the IC50 was “inactive”.

With COc1ccc(C(=O)NC(c2ccccc2)c2nc(-c3ccccc3)no2)cc1 (centres undefined) the IC50 was > 28.2 µM (inactive).

O=C(NC(c1ccc(Br)cc1)c1nc(-c2ccccc2)no1)c1ccc(Cl)c(Cl)c1 (centres undefined) was tested, and the IC50 was > 28.2 µM (inactive).

For O=C(NC(Cc1ccccc1)c1nc(-c2ccccc2)no1)c1cccc(Cl)c1 (centres undefined), the IC50 was > 28.2 µM (inactive).

With O=C(NC(c1ccc(Cl)cc1)c1nc(-c2cccc(Cl)c2)no1)c1cccc(Cl)c1 (centres undefined) the IC50 was > 28.2 µM (inactive).

Compound O=C(NC(c1cccc(Cl)c1)c1nc(-c2ccccc2)no1)c1cc(Cl)cc(Cl)c1 (centres undefined) has an IC50 of 0.112 µM.

For O=C(NC(c1ccc(Cl)c(Cl)c1)c1nc(-c2ccccc2)no1)c1ccc(Cl)cc1 (centres undefined), the IC50 was 1.2 µM.

O=C(NC(c1ccccc1)c1nc(-c2ccccc2)no1)c1cccc(Cl)c1 (centres undefined) showed an IC50 of 1.6 µM.

Compound O=C(c1cccc(Cl)c1)N(CCO)C(c1ccc(Cl)c(Cl)c1)c1nc(-c2ccccc2)no1 (centres undefined) has an IC50 of 2.7 µM.

In the case of CCc1ccc(C(NC(=O)c2cccc(Cl)c2)c2nc(-c3ccccc3)no2)cc1 (centres undefined), the IC50 is reported as > 28.2 µM (inactive).

In the case of O=C(NC(c1ccc(Cl)cc1)c1nc(-c2ccccn2)no1)c1cccc(Cl)c1 (centres undefined), the IC50 is reported as > 28.2 µM (inactive).

With Cc1ccc(C(=O)NC(c2ccccc2)c2nc(-c3ccccc3)no2)cc1 (centres undefined) the IC50 was > 28.2 µM (inactive).

O=C(NC(c1ccc(Cl)cc1)c1nc(-c2ccccc2)no1)c1cccc(Cl)c1 (centres undefined) was tested, and the IC50 was > 28.2 µM (inactive).

O=C(NC(c1ccccc1)c1nc(-c2ccccc2)no1)c1ccc(Cl)cc1 (centres undefined) was tested, and the IC50 was 7.3 µM.

From PubChem BioAssay AID743422 (The Scripps Research Institute Molecular Screening Center, 2014)
